Laboratory results reported in ChEMBL document CHEMBL1255562, “6,7-Dihydroxy-4-phenylcoumarin as inhibitor of aldose reductase 2” (Bioorg Med Chem Lett, 2010).

How the values were obtained:
[1] = Selectivity index, ratio of IC50 for human recombinant […] to IC50 for kidney aldose reductase 2
[2] = target: Aldo-keto reductase family 1 member B1 (Homo sapiens, UniProt P15121); experiment: Inhibition human recombinant […] by spectrophotometric analysis
Sorbitol dehydrogenase = target: T1, Sorbitol dehydrogenase (Homo sapiens, UniProt Q00796); experiment: Inhibition sorbitol dehydrogenase by spectrophotometric analysis
T1 sequence (Q00796 whole entry): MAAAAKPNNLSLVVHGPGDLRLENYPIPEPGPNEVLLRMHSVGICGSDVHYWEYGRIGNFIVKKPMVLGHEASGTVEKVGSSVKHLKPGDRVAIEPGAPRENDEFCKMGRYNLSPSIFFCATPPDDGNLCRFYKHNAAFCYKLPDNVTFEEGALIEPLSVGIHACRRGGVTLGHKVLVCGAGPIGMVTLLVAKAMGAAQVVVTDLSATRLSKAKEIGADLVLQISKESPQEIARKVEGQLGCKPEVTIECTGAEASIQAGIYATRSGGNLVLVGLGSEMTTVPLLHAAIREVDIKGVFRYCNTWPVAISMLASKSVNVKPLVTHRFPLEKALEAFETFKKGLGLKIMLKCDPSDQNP

[3] = Selectivity index, ratio of IC50 for sorbitol dehydrogenase to IC50 for kidney aldose reductase 2
[4] = Inhibition kidney aldose reductase 2 by spectrophotometric analysis
Rattus norvegicus = species on record: Rattus norvegicus; experiment: Reduction of galactitol accumulation in Wistar rat lens after 24 hrs; type: functional, tissue-based; conditions: Lens of camera-type eye

Row | SMILES | Ratio IC50 [1] | IC50 [2] [µM] | IC50 (Sorbitol dehydrogenase) [µM] | Ratio IC50 [3] | IC50 [4] [µM] | Activity (Rattus norvegicus)
1 | O=c1cc(O)c2ccccc2o1 [4-HYDROXYCOUMARINS] | > 9.88 | > 400 | > 400 | > 9.88 | 40.5 | 
2 | CC(/C=C1\SC(=S)N(CC(=O)O)C1=O)=C\c1ccccc1 |  |  | 67.7 |  | 1.4 | 
3 | Cc1cc(=O)oc2cc(O)c(O)cc12 [4-METHYLESCULETIN] | 1.68 | 64.4 | 212 | 5.54 | 38.3 | 
4 | O=c1ccc2cc(O)c(O)cc2o1 [ESCULETIN] | 1.84 | 67.2 | 82.9 | 2.27 | 36.5 | 
5 | O=c1oc2ccccc2cc1O [3-HYDROXYCOUMARIN] | 0.35 | 62 | 106 | 0.62 | 172 | 
6 | O=c1cc(-c2ccccc2)c2cc(O)c(O)cc2o1 | 6.9 | 66.3 | 288 | 30 | 9.6 | Dose-dependent effect
7 | O=c1ccc2ccccc2o1 [COUMARIN] |  | > 500 | > 400 |  | > 400 | 
8 | COc1cc2oc(=O)ccc2cc1O [ISOSCOPOLETIN] | 0.56 | 56.2 | > 250 | > 2.48 | 101 | 
9 | O=c1ccc2ccc(O)cc2o1 [UMBELLIFERONE] | 0.27 | 22.9 | 120 | 1.4 | 85.7 | 
10 | COc1ccc2ccc(=O)oc2c1 [HERNIARIN] |  |  | 124 |  |  | 
11 | COc1cc2ccc(=O)oc2cc1O [SCOPOLETIN] | 1.62 | 74.4 | 137 | 2.98 | 46 | 
12 | O=C(O)Cc1cc(=O)oc2cc(O)ccc12 | 0.15 | 20.8 | 163 | 1.15 | 142 | 
13 | O=C(O)Cc1cc(=O)oc2cc(O)c(O)cc12 | 1.19 | 63.3 | 335 | 6.27 | 53.4 | 
14 | O=c1ccc2cc(O)ccc2o1 [6-HYDROXYCOUMARIN] | 1.1 | 171 | > 400 | > 2.56 | 156 | 
15 | O=c1cc(-c2ccccc2)c2ccc(O)cc2o1 | 0.07 | 2.4 | 70.7 | 1.93 | 36.7 | 
16 | Cc1cc(=O)oc2cc(O)ccc12 [HYMECROMONE] | 0.27 | 24.5 | 153 | 1.7 | 89.9 | 
